According to patent US20130142879A1, “SUSPENSION FORMULATIONS” (INNOVATA BIOMED LIMITED, priority 2008, published 2013):

Legend:
[1] = Solubility of drugs within HFA 227 with ethanol addition
[2] = Solubility of drugs within HFA 134a with ethanol addition
[3] = Solubility of suspension stabilisers in HFA 134a or HFA 227 with ethanol and additives; type: physicochemical
Experimental: Trehalose has been determined to be insoluble (observed to be <0.12 μg/50 μl) in HFA 134a or HFA 227 with up to 12% w/w ethanol and only slightly soluble in 30% w/w ethanol (3.3 μg/[…] in HFA 134a, 2.7 μg/50 μl in HFA 227).
Leucine has been determined to be insoluble (observed to be <0.08 μg/50 μl) in HFA 134a or HFA 227 with up to 30% w/w ethanol.

Row | Solubility within HFA 227 ([1]; EtOH addition 0 % w/w) | Solubility within HFA 227 ([1]; EtOH addition 1 % w/w) | Solubility within HFA 227 ([1]; EtOH addition 5 % w/w) | SMILES | Solubility within HFA 134a ([2]; EtOH addition 0 % w/w) | Solubility within HFA 134a ([2]; EtOH addition 1 % w/w) | Solubility within HFA 134a ([2]; EtOH addition 5 % w/w) | further results
1 | – | – | – | OC[C@H]1O[C@H](O[C@H]2O[C@H](CO)[C@@H](O)[C@H](O)[C@H]2O)[C@H](O)[C@@H](O)[C@@H]1O [Trehalose] | – | – | – | Solubility ([1]; 30% w/w ethanol in HFA 227): 2.7 μg/50 μl
2 | – | – | – | CC(C)C[C@H](N)C(=O)O [Leucine] | – | – | – | Solubility ([3]; 3% w/w ethanol with 0.5% w/w propylene glycol or 0.01% w/w oleic acid, HFA 134a or HFA 227): < 0.08 μg/50 μl; Solubility ([3]; 12% w/w ethanol with 1.2% w/w water, HFA 134a or HFA 227): < 0.08 μg/50 μl; Solubility ([3]; HFA 134a or HFA 227 with up to 30% w/w ethanol): < 0.08 μg/50 μl
3 | 1.66 μg per 50 μl | 5.61 μg per 50 μl | 45.16 μg per 50 μl | CCCC1O[C@@H]2C[C@H]3[C@@H]4CCC5=CC(=O)C=C[C@]5(C)[C@H]4[C@@H](O)C[C@]3(C)[C@]2(C(=O)CO)O1 (some centres unmarked) [Budesonide] | – | – | – | –
4 | 0.00 μg per 50 μl | 0.00 μg per 50 μl | 0.07 μg per 50 μl | C[N+]1(C)[C@@H]2C[C@@H](OC(=O)C(O)(c3cccs3)c3cccs3)C[C@H]1[C@@H]1O[C@@H]12 [Tiotropium Bromide] | 0.00 μg per 50 μl | 0.01 μg per 50 μl | 0.33 μg per 50 μl | –
5 | 0.22 μg per 50 μl | 0.83 μg per 50 μl | 4.78 μg per 50 μl | CCC(=O)O[C@]1(C(=O)SCF)[C@H](C)C[C@H]2[C@@H]3C[C@H](F)C4=CC(=O)C=C[C@]4(C)[C@@]3(F)[C@@H](O)C[C@@]21C [Fluticasone Propionate] | – | – | – | Solubility within HFA 227 ([1]; EtOH addition 0.2 % w/w): 0.23 μg per 50 μl

Row | SMILES | Solubility within HFA 227 ([1]; EtOH addition 0 % w/w) | Solubility within HFA 227 ([1]; EtOH addition 1 % w/w) | Solubility within HFA 227 ([1]; EtOH addition 5 % w/w) | Solubility within HFA 134a ([2]; EtOH addition 0 % w/w) | Solubility within HFA 134a ([2]; EtOH addition 1 % w/w) | Solubility within HFA 134a ([2]; EtOH addition 5 % w/w) | further results
6 | COc1ccc(CC(C)NCC(O)c2ccc(O)c(NC=O)c2)cc1 (centres unmarked) [Formoterol] | 0.00 μg per 50 μl | 0.02 μg per 50 μl | 0.23 μg per 50 μl | 0.00 μg per 50 μl | 0.03 μg per 50 μl | 0.73 μg per 50 μl | –
